This is an account of results in US5585492A, “LTA4 Hydrolase inhibitors” (priority 1994, dated 1996).

One assay has as its system LTA4 hydrolase. To be noted: cited from earlier work.
Assay [1] concerns LTB4 production in human blood. As to the kind of experiment: Inhibition of Calcium Ionophore-Induced LTB4 Production in Human Blood (HWB). Format: cell-based. To be noted: Homo sapiens, read-out: Inhibition of Calcium Ionophore-Induced LTB4 Production in Human Blood IC50 HWB.
In assay [2] the test system is LTB4 production in mouse blood. The experiment in a line: Murine Ex Vivo LTB4 Inhibition, calcium ionophore stimulated mouse blood after oral gavage. Format: in vivo. To be noted: oral gavage, 1 hour. As for the experimental part: Leukotriene A4 hydrolass inhibitor compounds of the present invention were diluted to a predetermined concentration in phosphate buffered saline containing 2% DMSO and 1% Tween 80. The compounds were administered by oral gavage to adult male outbred mice weighing approximately 20-30 gm at a dose of 10 mg/kg body weight. (Compounds given at a dose of 50 mg/kg body weight are designtated in following Table by the symbol, *.) Sixty (60) minutes after administration of an LTA4 inhibitor compound of the invention, blood was collected (into heparin-containing tubes) from the retroorbital sinus. […] The mixture was incubated for 10 minutes at 37° C. in a humidified incubator. The reaction was terminated by centrifugation (833 g, 10 minutes at 4° C.). Supernatants were analyzed for LTB4 and thromboxane by commercially available enzyme-linked immunoassays [Caymen Chemical Co., Ann Arbor, Mich.] in accordance with the manufacturer's instructions. The percent inhibition was determined by comparison to animals treated identically except that the solution admininstered by oral gavage was devoid of inhibitor compound.

Assay [3] has as its target T1, recombinant human LTA4 hydrolase (Homo sapiens, UniProt P09960).
T1 construct: made in house; host or cells: Spodoptera frugiperda Sf-9 cells, baculovirus (AcNPV) expression vector
T1 sequence (P09960 1-611): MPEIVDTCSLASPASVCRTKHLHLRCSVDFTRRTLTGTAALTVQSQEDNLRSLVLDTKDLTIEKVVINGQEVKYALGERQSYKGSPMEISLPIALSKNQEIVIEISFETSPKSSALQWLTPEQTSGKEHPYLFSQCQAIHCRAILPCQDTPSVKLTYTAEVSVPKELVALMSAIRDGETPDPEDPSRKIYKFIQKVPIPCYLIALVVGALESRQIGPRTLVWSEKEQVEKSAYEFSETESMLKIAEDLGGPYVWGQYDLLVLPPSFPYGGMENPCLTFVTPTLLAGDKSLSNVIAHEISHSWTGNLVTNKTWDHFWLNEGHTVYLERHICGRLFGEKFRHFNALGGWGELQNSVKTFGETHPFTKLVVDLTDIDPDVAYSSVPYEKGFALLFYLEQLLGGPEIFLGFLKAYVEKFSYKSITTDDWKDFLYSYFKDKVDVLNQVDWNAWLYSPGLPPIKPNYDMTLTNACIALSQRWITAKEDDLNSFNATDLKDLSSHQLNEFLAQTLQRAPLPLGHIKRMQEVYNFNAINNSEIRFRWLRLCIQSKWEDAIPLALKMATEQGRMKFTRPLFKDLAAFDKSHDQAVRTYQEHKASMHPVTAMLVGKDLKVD
The experiment in a line: Recombinant Human LTA4 Hydrolase Assay for LTA4 Hydrolase Inhibitor Activity (LTB4 by enzyme-linked immunoassay). Particulars: read-out: Recombinant Human LTA4 Hydrolase Assay IC50 LTA4H. Format: biochemical. The protocol: Compounds of the present invention were tested for LTA4 hydrolase inhibitor activity against recombinant human LTA4 hydrolase (rhLTA4 H). […] Briefly, LTA4 hydrolase encoding DNA was amplified by polymerase chain reaction using a pair of oligonucleotide primers based on the nucleotide sequence from the 5'-end, and the complement of the 3'-end, of the coding region of the LTA4 hydrolase gene, the nucleotide sequence of which gene is known. […] A λgtll human placental cDNA library (Clonetech, Palo Alto, Calif.) provided the nucleic acid template.
One or more predetermined amounts of a compound of the invention were incubated in assay buffer (0.1M potassium phosphate, 5 mg/ml fatty acid free BSA, 10% DMSO, pH 7.4) for 10 minutes at room temperature with 250 ng of recombinant hLT4 H to allow binding, if any, between the enzyme and inhibitor. The stock enzyme solution was 1 mg/ml LTA4 hydrolase, 50 mM Tris, pH 8.0, 150 mM NaCl, 2.5 mM beta-mercaptoethanol, 50% glycerol. […] LTA4 (i.e., substrate) was prepared from the methyl ester of LTA4 (Biomol, Inc., Plymouth Meeting, Pa.) by treating the methyl ester with 30 molar equivalents of LiOH at room temperature for 18 hours. The LTA4 substrate in its free acid form was kept frozen at -80° C. until needed. […] Each reaction was carried out at room temperature for 10 minutes. The reaction was stopped by diluting 25 μl of the reaction mixture with 500 μl of the assay buffer without DMSO. LTB4 was quantified in the diluted sample by a commercially available enzyme-linked immunoassay [Caymen Chemical Co., Ann Arbor, Mich.] using the method recommended in the manufacturer's instructions and compared to the amount of LTB4 produced in a negative control (i.e., essentially identical conditions except without addition of an inhibitor compound). The IC50 was routinely calculated from the data produced.

[4] abbreviates: human whole blood, A23187 20 mcg/ml.

Read-outs that look alike come from different tables or passages of the source.

Turning to `CC(C)C[C@H](NC(=O)[C@@H](O)[C@H](N)Cc1ccccc1)C(=O)O` [bestatin], the “LTA4 hydrolase inhibitory activity (in words)” value with LTA4 hydrolase is given as “exhibit LTA4 hydrolase inhibitory activity”.
Regarding `C[C@H](CS)C(=O)N1CCC[C@H]1C(=O)O` [captopril], the “LTA4 hydrolase inhibitory activity (in words)” value in the assay with LTA4 hydrolase is “exhibit LTA4 hydrolase inhibitory activity”.
Regarding `c1ccc(Cc2ccc(OCCn3cnc4ncccc43)cc2)cc1` [Example 338B], the IC50 turned out to be 330 nM in assay [1] (setting [4]) and 8 nM in assay [3]. Moreover, the “Murine Ex Vivo LTB4 Inhibition % I LTB4 at 1 hour after administration of 50 mg/kg (*)” value in assay [2] (50 mg/kg (*)) is on record as 92%.
Turning to `Cn1c(=O)c2c(ncn2CCOc2ccc(Cc3ccccc3)cc2)n(C)c1=O` [Example 353], the half-maximal inhibitory concentration (IC50) in assay [1] (setting [4]) stood at 260 nM; in assay [3], 73 nM. In addition, the “Murine Ex Vivo LTB4 Inhibition % I LTB4 at 1 hour after administration of 10 mg/kg” value in assay [2] is listed as 0%.
The corresponding values for `CCOC(=O)CNCCCCOc1ccc(Cc2ccccc2)cc1` [Example 320] are 354 nM, 14 nM and 85%.
The corresponding values for `CC(=O)N1CCN(CCOc2ccc(Cc3ccccc3)cc2)CC1` [Example 277] are 546 nM, 520 nM and 42%.
The corresponding values for `CN(CCCOc1ccc(Cc2ccc(F)cc2)cc1)CCC(=O)O` [Example 336] are 187 nM, 31 nM and 99%.
For `COC(=O)CC1CCN(CCOc2ccc(Cc3ccccc3)cc2)C1` (centres unmarked) [Example 275], the 50% inhibitory concentration (IC50) in assay [1] (setting [4]) was 146 nM; in assay [3], 390 nM. Moreover, the “Murine Ex Vivo LTB4 Inhibition % I LTB4 at 1 hour after administration of 10 mg/kg” value in assay [2] worked out at 75%.
On to `c1ccc(Cc2ccc(OCCn3cccc4ncnc3-4)cc2)cc1` [Example 338A], for which the IC50 in assay [1] worked out at 690 nM; in assay [3], 140 nM. Also, the “Murine Ex Vivo LTB4 Inhibition % I LTB4 at 1 hour after administration of 10 mg/kg” value in assay [2] amounted to 22%.
In the case of `CNC(=O)C1CCN(CCOc2ccc(Cc3ccccc3)cc2)CC1` [Example 420], the 50% inhibitory concentration (IC50) in assay [1] (setting [4]) came to 133 nM; in assay [3], 57 nM. In assay [2], the “Murine Ex Vivo LTB4 Inhibition % I LTB4 at 1 hour after administration of 10 mg/kg” value came to 93%.
The corresponding values for `Nc1ccc2c(c1)ncn2CCOc1ccc(Cc2ccccc2)cc1` [Example 362A] are 3350 nM, 5070 nM and 28%.
